From patent US20100179225A1, “POI Prevention” (CYTOKINE PHARMASCIENCES, INC., priority 2008, published 2010)

Legend:
[1] = test system: MIP-1α mRNA; assay: Proinflammatory gene expression in ME, real-time RT-PCR: MIP-1α; assay type: in vivo, mice; conditions: 5 mg/kg i.v. preoperative, vs placebo IM
Source text: The small bowel of the animals was subjected to a standardized, surgical manipulation (IM) as described previously (Kalff J C, Schraut W H, Simmons R L et al. Surgical manipulation of the gut elicits an intestinal muscularis inflammatory response resulting in postsurgical ileus. Ann Surg 1998; 228:652-663; Wehner S, Schwarz N T, Hundsdoerfer R et al. Induction of IL-6 within the rodent intestinal muscularis after intestinal surgical stress. Surgery 2005; 137:436-446). In brief, after anesthesia a midline abdominal incision was made into the peritoneal cavity. […]
Proinflammatory gene expression was analyzed in placebo and CNI-1493 (5 mg/kg) treated animals at 1, 3, 6 and 24 hours after operation; n=5-7 each group. […] Total RNA was analyzed in ME specimen that was prepared as described before (Wehner S, Behrendt F F, Lyutenski B N et al. Inhibition of macrophage function prevents intestinal inflammation and postoperative ileus in rodents. Gut 2007; 56:176-185). […] Expression of mRNA was quantified in triplicate by a RT-PCR with gene expression assays for […] (MCP-1; #Mm00441242_m1), CCL3 (MIP-1α #Mm00441258_m1), IL-6 (Assay ID #Mm00446190_ml), TNF-α (#Mm00443258_m1) and ICAM-1 (#Mm00516023_m1). […] Data quantification was performed by the ΔΔCT method. […]

[2] = test system: nitric oxide (NO) production in ME; assay: Nitric oxide release from rat ME cultures (Griess reaction) after IM; assay type: in vivo; conditions: rats
Experimental: Animals underwent IM after intravenous CNI-1493 (5 mg/kg) or oral CPSI-2364 (1 mg/kg or 0.1 mg/kg) administration 90 minutes before surgery. Control animals received CNI-1493 (5 mg/kg) intravenously or CPSI-2364 orally (1 mg/kg or 0.1 mg/kg), but were not operated.
Total ME from small intestine was isolated 24 h after operation as described above and then cut into small pieces and washed for 30 minutes in PBS containing a penicillin/streptomycin (200U/200 μg) mixture. Aliquots of ˜50 mg were incubated in 1 mL of DMEM at 37° C. and 5% CO2 for further 24 hours and tissue culture supernatants were frozen in liquid nitrogen. The muscle tissue was blotted dry, and the exact weight was measured. To quantify the generation of NO from intestinal smooth muscle preparations, nitrite production was measured by the Griess reaction as described previously (Kalff J C, Schraut W H, Billiar T R et al. Role of inducible nitric oxide synthase in postoperative intestinal smooth muscle dysfunction in rodents. Gastroenterology 2000; 118:316-327). In brief, supernatant from the tissue culture was mixed with an equal volume of Griess reagent (0.1% N-(1-napthyl)ethyl-enediamine dihydrochloride and 1% sulfanilamide in 6% phosphoric acid; 1:1) and incubated for 10 minutes. The absorbance at 550 nm was measured with a microplate reader and compared with standard dilutions of sodium nitrite. […]

[3] = test system: circular smooth muscle of the graft; assay: Mechanical in vitro activity of mid-jejunum graft circular smooth muscle (bethanechol); assay type: in vivo, Lewis rats; conditions: 1 mg/kg i.v. 90 min before; 18 h reperfusion; 100 μmol/L bethanechol
Experimental: Syngeneic orthotopic small intestinal transplantation was performed in Lewis rats as previously described (Schwarz N T, Nakao A, Nalesnik M A, Kalff J C, Murase N, Bauer A J. Protective effects of ex vivo graft radiation and tacrolimus on syngeneic transplanted rat small bowel motility. Surgery 2002; 131: 413-423). […] Then the graft vascular bed was perfused with chilled UW solution (University of Wisconcin) and the intestinal lumen was irrigated with 50 ml cold 0.9% NaCl solution containing […]. neomycin sulfate (Uro Nebacetin N, Nycomed, Germany). The graft was stored in cold UW solution during the preparation of the recipient. […]
Mechanical in vitro activity of the mid-jejunum was evaluated at 18 hours after reperfusion using smooth muscle strips of the circular muscularis as described previously (N=8 each) (Kalff J C, Schraut W H, Simmons R L, Bauer A J. Surgical manipulation of the gut elicits an intestinal muscularis inflammatory response resulting in postsurgical ileus. Ann Surg 1998; 228: 652-663). […] The contractile response was analyzed with the ADI Chart© software and the contractions were calculated as grams per square millimeter per second by conversion of the weight and length of the strip to square millimeters of tissue.

Row | Structure (SMILES) | reduction of MIP-1α expression ([1]; 3 hours after IM) | reduction of MIP-1α expression ([1]; 6 hours after IM) | NO production from ME vs placebo IM ([2]; 0.1 mg/kg bodyweight p.o.) | NO production from ME vs placebo IM ([2]; p.o. preoperative (FIG. 12)) | circular smooth muscle contractile force [3] | increase in circular smooth muscle contractile activity in comparison to the vehicle grafts [3]
1 | C/C(=N\N=C(N)N)c1cc(NC(=O)CCCCCCCCC(=O)Nc2cc(/C(C)=N/N=C(N)N)cc(/C(C)=N/N=C(N)N)c2)cc(/C(C)=N/N=C(N)N)c1.Cl.Cl.Cl.Cl [CNI-1493] | 50% | 39% | – | – | – | –
2 | C/C(=N\N=C(N)N)c1cc(NC(=O)CCCCCCCCC(=O)Nc2cc(/C(C)=N/N=C(N)N)cc(/C(C)=N/N=C(N)N)c2)cc(/C(C)=N/N=C(N)N)c1.CS(=O)(=O)O.CS(=O)(=O)O.CS(=O)(=O)O.CS(=O)(=O)O [CPSI-2364] | – | – | led to the described results | significantly diminished | 3.63 grams/mm2/sec | 96%
